Reference: US20070082920A1, “NAD+-dependent DNA ligase inhibitors” (priority 2005, published 2007)
pIC50: −log10 of the molar value.

Legend:
[1] = system: Staphylococcus aureus ATCC 29213; assay: MIC, broth microdilution (CLSI), S. aureus; type: cell-based; details: lowest concentration inhibiting visual growth
Procedure: (§1) The compounds of Formulas 1-VIII were evaluated as inhibitors of NAD+-dependent DNA ligase inhibitors. Their antimicrobial activity was evaluated against bacteria using the broth microdilution method as described by Clinical Laboratory Standards Institute (formerly NCCLS). Activity was assessed against the following bacterial strains: Staphylococcus aureus ATCC 29213, Streptococcus pneumoniae ATCC 49619, Escherichia coli ATCC 25922, E. coli CGSC 5633 (ToIC mutant), Haemophilus influenzae ATCC 49766, Streptococcus pyogenes ATCC 19615, Moraxella catterhalis ATCC 25238, Enterococcus faecalis ATCC 29212. The lowest concentration of compound which inhibited visual growth of each bacterium, the minimum inhibitory concentration (MIC), was determined.

[2] = system: E. coli CGSC 5633 (ToIC mutant); assay: MIC, broth microdilution (CLSI), E. coli CGSC 5633; type: cell-based, Escherichia coli; design: unit not given beside the values
Procedure: as §1

[3] = system: Moraxella catterhalis ATCC 25238; assay: MIC, broth microdilution (CLSI), M. catarrhalis; type: cell-based
Procedure: as §1

[4] = Acute toxicity, Alamar blue cell viability, NIH 3T3; type: cell-based; details: mouse
Procedure: (§2) Acute toxicity was assessed against two mammalian cell lines, HepG2 (human hepatocyte) and NIH 3T3 (mouse fibroblast). Cell viability was measured by an in vitro assay using Alamar blue. The concentration of compound which inhibited 50% of the cell growth (LC50) was determined.

[5] = molecular target: DNA ligase enzyme (NAD+-dependent DNA ligase) (Streptococcus pneumoniae serotype 4, UniProt Q97QT2); assay: DNA ligase AMP release assay (luciferase readout); type: biochemical; details: purified enzyme from S. pneumoniae
Procedure: Activity against DNA ligase enzyme was measured using purified enzyme from S. pneumoniae. An AMP release assay was used to assess activity of compounds against the enzyme. AMP, released as a result of the ligation of oligonucleotides, is converted to ATP, which is then measured using luciferase enzyme. The concentration of compound which inhibited 50% of the ligation activity of the enzyme (IC50) was determined.

[6] = system: Haemophilus influenzae ATCC 49766; assay: MIC, broth microdilution (CLSI), H. influenzae; type: cell-based; design: unit not given beside the values
Procedure: as §1

[7] = system: Enterococcus faecalis ATCC 29212; assay: MIC, broth microdilution (CLSI), E. faecalis; type: cell-based; design: unit not given here
Procedure: as §1

[8] = system: Streptococcus pyogenes ATCC 19615; assay: MIC, broth microdilution (CLSI), S. pyogenes; type: cell-based
Procedure: as §1

[9] = Acute toxicity, Alamar blue cell viability, HepG2; type: cell-based; details: human
Procedure: as §2

[10] = system: Escherichia coli ATCC 25922; assay: MIC, broth microdilution (CLSI), E. coli ATCC 25922; type: cell-based
Procedure: as §1

[11] = system: Streptococcus pneumoniae ATCC 49619; assay: MIC, broth microdilution (CLSI), S. pneumoniae; type: cell-based
Procedure: as §1

Sequence of DNA ligase enzyme (NAD+-dependent DNA ligase) (Q97QT2 whole entry): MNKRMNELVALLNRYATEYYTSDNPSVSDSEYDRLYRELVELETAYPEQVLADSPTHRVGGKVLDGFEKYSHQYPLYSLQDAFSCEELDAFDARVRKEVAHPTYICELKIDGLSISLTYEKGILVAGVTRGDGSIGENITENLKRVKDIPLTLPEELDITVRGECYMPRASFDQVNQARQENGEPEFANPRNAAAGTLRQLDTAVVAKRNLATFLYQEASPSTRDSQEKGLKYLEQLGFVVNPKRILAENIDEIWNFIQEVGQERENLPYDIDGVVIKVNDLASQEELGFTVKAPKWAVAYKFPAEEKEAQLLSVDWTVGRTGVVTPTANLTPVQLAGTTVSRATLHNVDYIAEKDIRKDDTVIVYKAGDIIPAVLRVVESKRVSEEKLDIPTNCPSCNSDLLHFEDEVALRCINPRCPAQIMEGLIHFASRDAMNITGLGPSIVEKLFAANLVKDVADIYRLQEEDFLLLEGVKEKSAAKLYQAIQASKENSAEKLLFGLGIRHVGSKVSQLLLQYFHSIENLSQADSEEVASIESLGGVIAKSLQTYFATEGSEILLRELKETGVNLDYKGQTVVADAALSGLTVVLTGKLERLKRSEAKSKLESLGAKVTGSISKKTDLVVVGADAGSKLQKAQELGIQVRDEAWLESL

CN(c1nc2nc(N)nc(N)c2c2c1CCCC2)C1CCCCC1 [VII-b]
MIC S. aureus ATCC 29213 [1]: 8 | MIC E. coli CGSC 5633 [2]: <0.125 | MIC M. catarrhalis [3]: 4 | CC50 [4]: 1.37 µM | pIC50 [5]: 5.23 | MIC H. influenzae [6]: 64 | MIC E. faecalis [7]: 4 | MIC S. pyogenes [8]: 4 | CC50 [9]: 19.2 µM | MIC E. coli ATCC 25922 [10]: 128 | MIC S. pneumoniae [11]: 8

Cc1c(Cc2ccccc2)c(N(C)C2CCCCC2)nc2nc(N)nc(N)c12 [II-c]
MIC S. aureus ATCC 29213 [1]: 4 | MIC E. coli CGSC 5633 [2]: <0.125 | MIC M. catarrhalis [3]: 2 | CC50 [4]: 5.13 µM | pIC50 [5]: 4.95 | MIC H. influenzae [6]: >128 | MIC E. faecalis [7]: 2 | MIC S. pyogenes [8]: 2 | CC50 [9]: 15 µM | MIC E. coli ATCC 25922 [10]: 128 | MIC S. pneumoniae [11]: 4

COc1cc(CN(C)c2cc(C)c3c(N)nc(N)nc3n2)cc(OC)c1OC [IV-a]
MIC S. aureus ATCC 29213 [1]: 64 | MIC E. coli CGSC 5633 [2]: <0.125 | MIC M. catarrhalis [3]: 16 | pIC50 [5]: 4.82 | MIC H. influenzae [6]: 64 | MIC E. faecalis [7]: 2 | MIC S. pyogenes [8]: 64 | MIC E. coli ATCC 25922 [10]: 15 | MIC S. pneumoniae [11]: 4

Cc1c(N(C)C2CCCCC2)nc2nc(N)nc(N)c2c1C [II-e]
MIC S. aureus ATCC 29213 [1]: 32 | MIC E. coli CGSC 5633 [2]: 0.125 | MIC M. catarrhalis [3]: 4 to 8 | CC50 [4]: 10.9 µM | pIC50 [5]: 4.10 | MIC E. faecalis [7]: 1 | MIC S. pyogenes [8]: 2 to 8 | CC50 [9]: 19 µM | MIC E. coli ATCC 25922 [10]: 64 | MIC S. pneumoniae [11]: 4

Cc1cc(Nc2ccc3c(c2)OCCCO3)nc2nc(N)nc(N)c12 [III-p]
MIC S. aureus ATCC 29213 [1]: 128 | MIC E. coli CGSC 5633 [2]: 0.125 | MIC M. catarrhalis [3]: 16 | CC50 [4]: 15.6 µM | pIC50 [5]: 4.94 | MIC E. faecalis [7]: 0.5 | CC50 [9]: 20 µM | MIC E. coli ATCC 25922 [10]: 64 | MIC S. pneumoniae [11]: 4

CCCc1cc(N(C)C2CCCCC2)nc2nc(N)nc(N)c12 [IV-e]
MIC S. aureus ATCC 29213 [1]: 32 | MIC E. coli CGSC 5633 [2]: 0.5 | MIC M. catarrhalis [3]: 4 | CC50 [4]: 9.9 µM | pIC50 [5]: 4.09 | MIC E. faecalis [7]: 1 | MIC S. pyogenes [8]: 1 | CC50 [9]: 15.1 µM | MIC E. coli ATCC 25922 [10]: 128 | MIC S. pneumoniae [11]: 2

Cc1cc(NCc2ccc(F)cc2)nc2nc(N)nc(N)c12 [III-a]
MIC S. aureus ATCC 29213 [1]: 32 | MIC E. coli CGSC 5633 [2]: 0.25 | MIC M. catarrhalis [3]: 8 | CC50 [4]: 8.14 µM | MIC H. influenzae [6]: 2 | MIC E. faecalis [7]: 4 | MIC S. pyogenes [8]: 2 | CC50 [9]: 24 µM | MIC E. coli ATCC 25922 [10]: 32 | MIC S. pneumoniae [11]: 64

Cc1c(C2CCCC2)c(NCc2ccc(F)c(F)c2)nc2nc(N)nc(N)c12 [II-g]
MIC S. aureus ATCC 29213 [1]: 4 | MIC E. coli CGSC 5633 [2]: 2 | MIC M. catarrhalis [3]: 1 | CC50 [4]: 2.67 µM | MIC H. influenzae [6]: 16 | MIC E. faecalis [7]: 4 | MIC S. pyogenes [8]: 4 | CC50 [9]: 16.4 µM | MIC E. coli ATCC 25922 [10]: >128 | MIC S. pneumoniae [11]: 4

Cc1cc(NCc2cc(C(F)(F)F)cc(C(F)(F)F)c2)nc2nc(N)nc(N)c12 [III-d]
MIC S. aureus ATCC 29213 [1]: 16 | MIC E. coli CGSC 5633 [2]: 1 | MIC M. catarrhalis [3]: 4 | CC50 [4]: 7.72 µM | MIC H. influenzae [6]: 16 | MIC E. faecalis [7]: 1 | MIC S. pyogenes [8]: 2 | CC50 [9]: 19.5 µM | MIC E. coli ATCC 25922 [10]: 16 | MIC S. pneumoniae [11]: 2

Cc1cc(NCc2ccc(C(F)(F)F)cc2)nc2nc(N)nc(N)c12 [III-c]
MIC S. aureus ATCC 29213 [1]: 16 | MIC E. coli CGSC 5633 [2]: 0.25 | MIC M. catarrhalis [3]: 8 | CC50 [4]: 11.2 µM | MIC H. influenzae [6]: 16 | MIC E. faecalis [7]: 4 | MIC S. pyogenes [8]: 4 | CC50 [9]: 22.8 µM | MIC E. coli ATCC 25922 [10]: 16 | MIC S. pneumoniae [11]: 4
